Measured values as given in article PMC3145970, “Specific CLK Inhibitors from a Novel Chemotype for Regulation of Alternative Splicing” (Chemistry & Biology, 2011).
Read-outs that look alike come from different tables or passages of the source.

How the values were obtained:
Assay in all cases: Thermal stability shift assay
Format in all cases: binding
CDK8 = CDK8 (Homo sapiens, UniProt P49336); conditions: read-out: Tm shift CDK8
Summary of the method: (§1)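 Protein at 2 μM was heated with 10 μM inhibitor in 10 mM HEPES pH 7.5, 500 mM NaCl containing SyproOrange (1:1000 dilution); thermal denaturation was followed by fluorescence in a real-time PCR instrument.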

CaMK4 = target: T1, CaMK4 (Homo sapiens, UniProt Q16566); conditions: read-out: Tm shift CaMK4
T1 sequence (Q16566 1-473): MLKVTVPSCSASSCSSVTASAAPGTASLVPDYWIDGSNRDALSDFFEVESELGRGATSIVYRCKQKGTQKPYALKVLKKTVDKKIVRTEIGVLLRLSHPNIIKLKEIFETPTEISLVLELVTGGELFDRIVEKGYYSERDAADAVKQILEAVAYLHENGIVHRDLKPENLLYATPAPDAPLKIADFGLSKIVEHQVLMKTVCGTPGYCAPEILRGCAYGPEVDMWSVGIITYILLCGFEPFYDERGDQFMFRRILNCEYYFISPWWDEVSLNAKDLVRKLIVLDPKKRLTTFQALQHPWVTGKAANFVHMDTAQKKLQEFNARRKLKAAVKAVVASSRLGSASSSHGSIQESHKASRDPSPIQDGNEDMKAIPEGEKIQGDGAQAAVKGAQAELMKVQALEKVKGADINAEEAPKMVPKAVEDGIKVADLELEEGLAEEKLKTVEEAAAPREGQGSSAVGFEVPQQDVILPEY
Summary of the method: as §1

CaMKK1 = CaMKK1 (Homo sapiens, UniProt Q8N5S9); conditions: read-out: Tm shift CaMKK1
Summary of the method: as §1

FES = target: T2, FES (Homo sapiens, UniProt P07332); conditions: read-out: Tm shift FES
T2 construct: purchased in-house (SGC Oxford thermal shift panel)
Summary of the method: as §1

MST2 = target: T3, MST2 (Homo sapiens, UniProt Q13188); conditions: read-out: Tm shift MST2
T3 construct: purchased in-house (SGC Oxford thermal shift panel)
T3 sequence (Q13188 1-491): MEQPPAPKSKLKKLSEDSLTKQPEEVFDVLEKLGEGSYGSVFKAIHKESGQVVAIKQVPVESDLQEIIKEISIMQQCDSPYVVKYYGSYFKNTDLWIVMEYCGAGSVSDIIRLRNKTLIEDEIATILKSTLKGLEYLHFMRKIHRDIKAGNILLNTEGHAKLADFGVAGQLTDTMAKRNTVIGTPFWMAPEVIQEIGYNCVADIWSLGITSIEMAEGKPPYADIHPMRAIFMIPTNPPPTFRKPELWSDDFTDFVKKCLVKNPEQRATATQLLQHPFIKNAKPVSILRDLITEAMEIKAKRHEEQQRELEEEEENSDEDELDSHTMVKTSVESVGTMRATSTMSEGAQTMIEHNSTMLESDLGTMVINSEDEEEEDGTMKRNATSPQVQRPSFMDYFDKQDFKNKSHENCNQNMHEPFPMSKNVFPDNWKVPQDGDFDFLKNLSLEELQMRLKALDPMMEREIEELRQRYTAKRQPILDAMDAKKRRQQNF
Summary of the method: as §1

PIM3 = PIM3 (Homo sapiens, UniProt Q86V86); conditions: read-out: Tm shift PIM3
Summary of the method: as §1

PKG1 = target: T4, PKG1 (Homo sapiens, UniProt Q13976); conditions: read-out: Tm shift PKG1
T4 sequence (Q13976 1-671): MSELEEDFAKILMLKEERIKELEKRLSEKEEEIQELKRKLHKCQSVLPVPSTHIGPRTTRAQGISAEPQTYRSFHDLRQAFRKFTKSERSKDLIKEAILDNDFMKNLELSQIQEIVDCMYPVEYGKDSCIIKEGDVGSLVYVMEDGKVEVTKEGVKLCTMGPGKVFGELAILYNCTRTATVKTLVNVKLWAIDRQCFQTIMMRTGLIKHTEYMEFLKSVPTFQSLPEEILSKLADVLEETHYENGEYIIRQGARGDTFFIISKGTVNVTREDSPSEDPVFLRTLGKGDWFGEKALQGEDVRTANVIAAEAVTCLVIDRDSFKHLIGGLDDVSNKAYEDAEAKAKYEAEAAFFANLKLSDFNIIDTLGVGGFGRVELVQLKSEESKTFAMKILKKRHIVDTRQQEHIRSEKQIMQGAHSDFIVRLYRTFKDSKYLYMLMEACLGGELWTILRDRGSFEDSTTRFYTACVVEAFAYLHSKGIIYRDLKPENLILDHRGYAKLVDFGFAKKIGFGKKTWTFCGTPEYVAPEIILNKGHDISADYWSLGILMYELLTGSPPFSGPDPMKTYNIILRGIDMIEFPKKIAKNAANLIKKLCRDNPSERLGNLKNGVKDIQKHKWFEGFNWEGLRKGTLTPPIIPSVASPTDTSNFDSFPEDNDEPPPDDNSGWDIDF
Summary of the method: as §1

RSK1-C = target: T5, RSK1-C (Homo sapiens, UniProt Q15418); conditions: read-out: Tm shift RSK1-C
T5 construct: RSK1-C 0.7 4.0 1.6 1.9 1.9 0.3 0.9
Summary of the method: as §1

RSK4 = RSK4 (Homo sapiens, UniProt Q9UK32); conditions: read-out: Tm shift RSK4
Summary of the method: as §1

YANK1 = YANK1 (Homo sapiens, UniProt Q8WU08); conditions: read-out: Tm shift YANK1
Summary of the method: as §1

p38d = target: T6, p38d (Homo sapiens, UniProt O15264); conditions: read-out: Tm shift p38d
T6 construct: purchased in-house (SGC Oxford thermal shift panel)
T6 sequence (O15264 1-365): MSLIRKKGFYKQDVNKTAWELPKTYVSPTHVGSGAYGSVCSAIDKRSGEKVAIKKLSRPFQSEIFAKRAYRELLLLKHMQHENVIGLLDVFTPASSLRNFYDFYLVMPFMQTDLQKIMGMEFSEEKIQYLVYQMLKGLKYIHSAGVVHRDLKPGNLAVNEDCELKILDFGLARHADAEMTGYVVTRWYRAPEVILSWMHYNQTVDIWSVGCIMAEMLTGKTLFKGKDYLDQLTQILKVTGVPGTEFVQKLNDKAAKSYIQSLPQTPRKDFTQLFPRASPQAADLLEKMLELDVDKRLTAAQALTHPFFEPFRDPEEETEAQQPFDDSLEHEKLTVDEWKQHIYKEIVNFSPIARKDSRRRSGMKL
Summary of the method: as §1

YANK1, sequence (Q8WU08 whole entry): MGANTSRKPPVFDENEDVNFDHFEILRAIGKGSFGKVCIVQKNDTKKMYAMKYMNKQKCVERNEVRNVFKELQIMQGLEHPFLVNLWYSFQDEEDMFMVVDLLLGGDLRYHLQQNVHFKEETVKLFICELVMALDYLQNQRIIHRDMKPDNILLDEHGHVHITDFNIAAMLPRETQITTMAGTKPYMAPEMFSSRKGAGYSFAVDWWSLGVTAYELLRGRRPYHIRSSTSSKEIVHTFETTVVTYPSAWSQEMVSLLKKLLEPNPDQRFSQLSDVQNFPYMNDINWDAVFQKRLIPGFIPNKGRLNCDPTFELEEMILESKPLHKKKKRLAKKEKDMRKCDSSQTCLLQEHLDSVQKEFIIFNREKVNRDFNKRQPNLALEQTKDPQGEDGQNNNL
CDK8, sequence (P49336 whole entry): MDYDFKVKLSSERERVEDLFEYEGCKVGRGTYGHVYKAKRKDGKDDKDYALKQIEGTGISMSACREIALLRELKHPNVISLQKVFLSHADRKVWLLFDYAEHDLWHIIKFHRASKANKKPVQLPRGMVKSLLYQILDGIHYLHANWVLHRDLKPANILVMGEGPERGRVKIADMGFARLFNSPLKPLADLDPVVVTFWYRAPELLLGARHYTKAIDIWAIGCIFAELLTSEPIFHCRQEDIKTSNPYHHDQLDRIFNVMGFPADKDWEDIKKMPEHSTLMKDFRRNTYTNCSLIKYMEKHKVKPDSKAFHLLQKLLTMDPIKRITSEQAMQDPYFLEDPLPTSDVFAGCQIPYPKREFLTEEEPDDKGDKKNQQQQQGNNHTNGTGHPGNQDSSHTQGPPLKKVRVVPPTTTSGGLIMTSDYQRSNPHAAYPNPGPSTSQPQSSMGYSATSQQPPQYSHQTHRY
RSK4, sequence (Q9UK32 whole entry): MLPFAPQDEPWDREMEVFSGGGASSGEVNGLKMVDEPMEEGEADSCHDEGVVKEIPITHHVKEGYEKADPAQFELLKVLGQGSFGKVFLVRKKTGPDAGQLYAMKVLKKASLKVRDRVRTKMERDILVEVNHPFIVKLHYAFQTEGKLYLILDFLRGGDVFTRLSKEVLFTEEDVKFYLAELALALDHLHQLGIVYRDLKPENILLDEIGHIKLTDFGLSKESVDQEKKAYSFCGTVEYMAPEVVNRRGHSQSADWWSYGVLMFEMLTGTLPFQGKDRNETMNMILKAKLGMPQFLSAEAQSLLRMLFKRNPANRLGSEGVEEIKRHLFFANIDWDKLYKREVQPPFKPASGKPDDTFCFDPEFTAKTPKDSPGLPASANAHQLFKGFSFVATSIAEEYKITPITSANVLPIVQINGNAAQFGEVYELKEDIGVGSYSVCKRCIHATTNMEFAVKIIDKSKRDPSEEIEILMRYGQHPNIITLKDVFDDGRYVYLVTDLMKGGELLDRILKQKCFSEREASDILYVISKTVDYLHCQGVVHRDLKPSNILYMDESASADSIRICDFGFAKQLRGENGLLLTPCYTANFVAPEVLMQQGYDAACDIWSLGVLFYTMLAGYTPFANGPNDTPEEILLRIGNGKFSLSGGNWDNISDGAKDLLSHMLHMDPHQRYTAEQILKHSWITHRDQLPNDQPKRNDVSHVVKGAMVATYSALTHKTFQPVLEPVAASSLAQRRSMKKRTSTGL
CaMKK1, sequence (Q8N5S9 whole entry): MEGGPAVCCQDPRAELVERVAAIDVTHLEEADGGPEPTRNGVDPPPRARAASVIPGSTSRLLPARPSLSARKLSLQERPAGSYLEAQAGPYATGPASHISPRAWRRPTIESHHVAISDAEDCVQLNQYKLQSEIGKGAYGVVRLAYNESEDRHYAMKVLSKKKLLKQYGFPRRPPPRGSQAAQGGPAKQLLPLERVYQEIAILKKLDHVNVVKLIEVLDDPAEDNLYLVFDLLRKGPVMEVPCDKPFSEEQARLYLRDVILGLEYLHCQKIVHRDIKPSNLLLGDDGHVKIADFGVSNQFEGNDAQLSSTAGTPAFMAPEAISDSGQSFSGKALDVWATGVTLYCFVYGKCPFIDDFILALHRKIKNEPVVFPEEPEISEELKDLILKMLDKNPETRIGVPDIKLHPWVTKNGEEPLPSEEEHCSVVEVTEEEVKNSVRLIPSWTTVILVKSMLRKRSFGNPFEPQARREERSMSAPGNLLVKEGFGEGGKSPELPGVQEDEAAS
T2 sequence (P07332 whole entry): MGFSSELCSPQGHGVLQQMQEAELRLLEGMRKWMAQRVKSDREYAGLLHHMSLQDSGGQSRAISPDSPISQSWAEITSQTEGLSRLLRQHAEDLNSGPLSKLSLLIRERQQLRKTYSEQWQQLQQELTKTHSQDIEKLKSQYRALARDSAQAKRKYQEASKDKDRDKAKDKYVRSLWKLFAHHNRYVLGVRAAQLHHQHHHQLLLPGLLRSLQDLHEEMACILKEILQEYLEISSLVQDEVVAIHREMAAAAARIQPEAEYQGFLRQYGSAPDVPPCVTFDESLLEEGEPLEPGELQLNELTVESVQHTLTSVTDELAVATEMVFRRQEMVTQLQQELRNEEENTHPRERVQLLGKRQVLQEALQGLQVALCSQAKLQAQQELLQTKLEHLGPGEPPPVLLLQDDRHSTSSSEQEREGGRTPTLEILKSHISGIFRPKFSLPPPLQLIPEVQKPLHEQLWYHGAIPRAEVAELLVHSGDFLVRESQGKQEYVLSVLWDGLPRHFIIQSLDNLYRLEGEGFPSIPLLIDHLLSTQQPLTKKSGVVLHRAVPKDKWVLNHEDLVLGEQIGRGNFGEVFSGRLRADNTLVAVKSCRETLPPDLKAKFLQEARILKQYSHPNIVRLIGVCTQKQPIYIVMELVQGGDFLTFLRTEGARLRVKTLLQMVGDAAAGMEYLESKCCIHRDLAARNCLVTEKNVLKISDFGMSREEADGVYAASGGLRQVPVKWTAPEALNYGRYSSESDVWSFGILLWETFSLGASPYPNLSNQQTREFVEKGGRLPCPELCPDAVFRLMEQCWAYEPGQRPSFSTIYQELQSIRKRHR
T5 sequence (Q15418 418-675 limits assumed): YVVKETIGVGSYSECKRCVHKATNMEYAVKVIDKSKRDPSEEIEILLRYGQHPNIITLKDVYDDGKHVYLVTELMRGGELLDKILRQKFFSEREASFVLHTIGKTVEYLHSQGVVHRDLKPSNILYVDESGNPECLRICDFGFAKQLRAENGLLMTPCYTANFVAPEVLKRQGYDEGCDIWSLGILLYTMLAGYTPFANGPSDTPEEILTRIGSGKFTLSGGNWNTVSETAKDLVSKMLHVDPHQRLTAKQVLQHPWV

| ΔTm at 10 µM (CDK8; inhibitor 10 μM) [°C] | ΔTm at 10 µM (CaMK4; inhibitor 10 μM) [°C] | ΔTm at 10 µM (CaMKK1; inhibitor 10 μM) [°C] | ΔTm at 10 µM (FES; inhibitor 10 μM) [°C] | ΔTm at 10 µM (MST2; inhibitor 10 μM) [°C] | ΔTm at 10 µM (PIM3; inhibitor 10 μM) [°C] | ΔTm at 10 µM (PKG1; inhibitor 10 μM) [°C] | ΔTm at 10 µM (RSK1-C; inhibitor 10 μM) [°C] | ΔTm at 10 µM (RSK4; inhibitor 10 μM) [°C] | ΔTm at 10 µM (YANK1; inhibitor 10 μM) [°C] | ΔTm at 10 µM (p38d; inhibitor 10 μM) [°C] | SMILES | ΔTm at 10 µM (CDK8) [°C] | ΔTm at 10 µM (CaMK4) [°C] | ΔTm at 10 µM (CaMKK1) [°C] | ΔTm at 10 µM (FES) [°C] | ΔTm at 10 µM (MST2) [°C] | ΔTm at 10 µM (PIM3) [°C] | ΔTm at 10 µM (PKG1) [°C] | ΔTm at 10 µM (RSK1-C) [°C] | ΔTm at 10 µM (RSK4) [°C] | further results |
| --- | --- | --- | --- | --- | --- | --- | --- | --- | --- | --- | --- | --- | --- | --- | --- | --- | --- | --- | --- | --- | --- |
| – | – | – | – | – | – | – | – | – | – | – | CCOC(=O)c1c(C(C#N)=CN)c2ccc(Cl)c(Cl)c2n1C (mixture of isomers) [KH-CB20, (E/Z)-Ethyl 3-(2-Amino-1-Cyanovinyl)-6,7-Dichloro-1-Methyl-1H-Indole-2-Carboxylate] | 1.3 | -0.1 | 0.6 | -0.3 | 0.4 | 2.8 | 0.5 | 1.9 | 1.1 | ΔTm at 10 µM (YANK1): -0.3 °C; ΔTm at 10 µM (p38d): -0.3 °C |
| 0.4 | 0.2 | 0.3 | 0 | 0.3 | 3.2 | 0.3 | 0.3 | -0.2 | 0 | 0.4 | CCOC(=O)c1c(C(C#N)=CN(C)C)c2ccc(Cl)c(Cl)c2n1C (mixture of isomers) [compound 2, (E/Z)-Ethyl 6,7-Dichloro-3-[1-Cyano-2-(Dimethylamino)Vinyl]-1-Methyl-1H-Indole-2-Carboxylate] | – | – | – | – | – | – | – | – | – | – |
| – | – | – | – | – | – | – | – | – | – | – | CCOC(=O)c1c(/C(C#N)=C\N)c2ccc(Cl)c(Cl)c2n1C [KH-CB19, (E)-Ethyl 3-(2-Amino-1-Cyanovinyl)-6,7-Dichloro-1-Methyl-1H-Indole-2-Carboxylate] | 1.5 | 0.8 | -0.1 | -0.3 | 0.2 | 3.1 | 0.8 | 1.6 | 1.6 | ΔTm at 10 µM (YANK1): -0.2 °C; ΔTm at 10 µM (p38d): 0.3 °C |
| 2.5 | 0.4 | 0.4 | 0 | -0.5 | 4.2 | 0.6 | 1.9 | 1.3 | 0.3 | 0.3 | Cn1c2c(Cl)c(Cl)ccc2c2c(C#N)c[nH]c(=O)c21 [compound 3, 7,8-Dichloro-9-Methyl-1-Oxo-2,9-Dihydro-1H-Pyrido[3,4-b]Indole-4-Carbonitrile] | – | – | – | – | – | – | – | – | – | – |

| SMILES | ΔTm at 10 µM (CDK8; inhibitor 10 μM) [°C] | ΔTm at 10 µM (CaMK4; inhibitor 10 μM) [°C] | ΔTm at 10 µM (CaMKK1; inhibitor 10 μM) [°C] | ΔTm at 10 µM (FES; inhibitor 10 μM) [°C] | ΔTm at 10 µM (MST2; inhibitor 10 μM) [°C] | ΔTm at 10 µM (PIM3; inhibitor 10 μM) [°C] | ΔTm at 10 µM (PKG1; inhibitor 10 μM) [°C] | ΔTm at 10 µM (RSK1-C; inhibitor 10 μM) [°C] | ΔTm at 10 µM (RSK4; inhibitor 10 μM) [°C] | ΔTm at 10 µM (YANK1; inhibitor 10 μM) [°C] | ΔTm at 10 µM (p38d; inhibitor 10 μM) [°C] | ΔTm at 10 µM (CDK8) [°C] | ΔTm at 10 µM (CaMK4) [°C] | ΔTm at 10 µM (CaMKK1) [°C] | ΔTm at 10 µM (FES) [°C] | ΔTm at 10 µM (MST2) [°C] | ΔTm at 10 µM (PIM3) [°C] | ΔTm at 10 µM (PKG1) [°C] | ΔTm at 10 µM (RSK1-C) [°C] | ΔTm at 10 µM (RSK4) [°C] | further results |
| --- | --- | --- | --- | --- | --- | --- | --- | --- | --- | --- | --- | --- | --- | --- | --- | --- | --- | --- | --- | --- | --- |
| NC1=NC(=O)/C(=C2\CCNC(=O)c3[nH]c(Br)cc32)N1 [Hymenialdisine, hymenialdisine, reference compound] | 0.1 | 0.4 | 0.2 | 0.7 | 3.9 | 3.8 | 1.4 | 0.7 | 1.7 | 0 | -0.1 | – | – | – | – | – | – | – | – | – | – |
